Patent US20130123358A1, “Metabolic Benefits to Butyrate as a Chronic Diet Supplement” (priority 2009, published 2013)

Key:
HDAC [1] = test: Histone Deacetylase Assay Kit, inhibition by butyrate isoforms; details: Histone Deacetylase Assay Kit (Upstate), FIG. 8
Description: Several isoforms of butyrate were purchased (Sigma Aldrich Chemicals, St. Louis, Mo.) and tested for inhibitory activity of HDAC, using a Histone Deacetylase Assay Kit (Upstate Biotechnology, Lake Placid, N.Y.).

[2] = tested on: C57BL/6J mice on chow diet; test: Amyl butyrate in mice on chow diet for 4 months; type: in vivo, mouse; details: amyl butyrate 5 g/kg BW/day in chow diet
Description: Amyl butyrate was administrated at 5 g/kg BW/day in C57BL/6J mice for 4 months. The amyl butyrate was added to the chow diet. […] FIGS. 14B and 14C show the body fat and muscle content measured by NMR as described above. […] In FIGS. 14A-14E, values are the mean±SE (n=7). *P<0.05, **P<0.001 compared to the control by Student's t test.

[3] = tested on: C57BL/6J mice on high fat diet; test: TSA in HFD-fed mice (body weight, ITT, insulin signaling, muscle fiber); type: in vivo, mouse; details: TSA 0.6 ug/kg/day i.p.
Description: Sodium butyrate was administrated through dietary supplementation. Sodium butyrate (#303410, Sigma) was incorporated into the HFD evenly through blending the diet and sodium butyrate together at 400 rpm in a food processor. Sodium butyrate (50 g) was used in 1 kg diet to reach a dose of 5% w/w. The sodium butyrate containing diet was pelleted and stored in a −20° C. freezer. Trichostatin A (TSA) (T-1052, A.G. Scientific Inc. San Diego, Calif.) was dissolved in DMSO, and diluted in 0.9% saline at 2:98 ratio. The TSA solution (200 ul) was administrated by intra-peritoneal (i.p.) injection to reach a dose of […]. The control mice were administrated with the same volume of vehicle. 50 ml of tributyrin (#113026, Sigma) was incorporated into one kilogram of Chow diet in powder to reach a dose of 5% w/w in mice.
Trichostatin A (TSA) is a well-established HDAC inhibitor that is frequently used in the study of HDACs. The data presented above indicate that the metabolic activity of butyrate may be in part related to inhibition of HDACs. TSA activity was examined in the same model of murine obesity. TSA was administrated through daily i.p. injection during HFD feeding to C57BL/6J mice. The control mice were injected with an identical volume of PBS.
The mice at 5 weeks in age were fed HFD to induce obesity, and TSA was administrated at the dose of 0.6 ug/kg/day. The effects of TSA treatment were tested after 12-13 weeks. […] FIG. 11C indicates the insulin signaling in the gastrocnemius muscle. The muscle was isolated after insulin (0.75 U/kg) injection for 30 minutes and used to prepare whole cell lysate for immunoblot. IRS-1 and Akt were examined for tyrosine (Y632) and serine (S473) phosphorylation.
In addition, the vastus laterais muscle was isolated from the mice at 13 weeks on HFD, and used to make serial cryostat sections of muscle. The muscle slides made from vastus lateralis, gastrocnemius (gastr.) and soleus muscle were stained with antibody against the type I myosin heavy chain in the oxidative fiber. The photograph was taken at 20× magnification. The whole cell lysate was prepared from gastrocnemius muscle and analyzed in an immunoblot. PGC-1α, type I myosin heavy chain (Myosin) and myoglobin were blotted with specific antibodies, and the results shown in FIG. 11D. The results in FIGS. 11A-11D are the mean±SE (n=8 in each group). *P<0.05 (vs. control).

HDAC [4] = test: Histone deacetylase assay on muscle nuclear extracts of treated mice; type: in vivo, mouse; details: TSA-treated mice on HFD, positive control
Description: Histone deacetylase assay were conducted according to the instruction from the manufacturer (#17-320, Upstate). Briefly, 10 ug of muscle nuclear extract (as an enzyme) was incubated with [3H]-acetyl CoA (#TRK688, Amersham) radio labeled histone H4 peptide (25,000 CPM, as a substrate) at 37° C. for 12 hours by shaking Released [3H]-acetate was measured using a scintillation counter. The nuclear extract was prepared according to a protocol described elsewhere (17). The muscle tissues were collected and snap-frozen in liquid nitrogen within 2 min of cervical dislocation of mice. Tissue samples were stored at −80° C. until further processing. The muscle sample of 200˜300 mg was cut into small pieces on dry ice and homogenized in 1 ml of lysate buffer. After centrifugation at 10,000 rpm for 1 minute at 4° C., the nucleus was pelleted and collected. After being washed, the nucleus pellet was treated with extraction buffer. The supernatant was collected for nuclear protein after centrifugation at 14,000 rpm for 5 minutes at 4° C.
Without wishing to be bound by this theory, one activity of butyrate could be related to inhibition of HDAC. Sodium butyrate inhibits the class I and class II histone deacetylases (HDACs). To test this possibility, HDAC activity was examined in the skeletal muscle of mice at 16 weeks on HFD (FIG. 7G). The assay was conducted with the nuclear extracts of muscle samples. […]

ob/ob mice = test: Tributyrin in ob/ob genetically obese mice; type: in vivo, mouse; details: tributyrin 5 g/kg body weight/day in chow diet
Description: Male C57BL/6J (4 weeks in age) and ob/ob mice (4 weeks in age) were purchased from the Jackson Laboratory (Bar Harbor, Me.). After one week quarantine, the C57BL/6J mice were fed on the high fat diet (HFD, D12331, Research Diets, New Brunswick, N.J.), which contains 58% calories in fat. The ob/ob mice were fed on Chow diet (5001, Lab Diet) that contains 13.4% calories in fat. All of the mice were housed in the animal facility with a 12:12-h light-dark cycle and constant temperature (22-24° C.). The mice were free to access water and diet. All procedures were performed in accordance with National Institute of Health guidelines for the care and use of animals and approved by the Institute Animal Care and Use Committee at the Pennington Biomedical Research Center.
Sodium butyrate was administrated through dietary supplementation. Sodium butyrate (#303410, Sigma) was incorporated into the HFD evenly through blending the diet and sodium butyrate together at 400 rpm in a food processor. Sodium butyrate (50 g) was used in 1 kg diet to reach a dose of 5% w/w. The sodium butyrate containing diet was pelleted and stored in a −20° C. freezer. […]
To test effect of different forms of butyric acid, tributyrin was used in the ob/ob genetically obese mice model. […] After 2 weeks, body weight was measured and an insulin tolerance test was given. […]

SMILES: CCCCCOC(=O)CCC [amyl butyrate]
- inhibitory activity of HDAC (HDAC [1]): inhibited HDAC
- body weight gain [2]: prevented body weight gain
- insulin resistance (fasting glucose and ITT) [2]: protected the mice from insulin resistance
- body fat gain ([2]; NMR): prevented fat gain
- lean body mass ([2]; NMR): without affecting lean body mass

SMILES: CCCC(=O)OCC(C)C [isobutyl butyrate]
- inhibitory activity of HDAC (HDAC [1]): inhibited HDAC

SMILES: CCCCCCOC(=O)CCC [hexyl butyrate]
- inhibitory activity of HDAC (HDAC [1]): inhibited HDAC

SMILES: CC(C)C(O)C(=O)O (stereo not shown) [2-hydroxy-3-methylbutanoic acid]
- inhibitory activity of HDAC (HDAC [1]): inhibited HDAC

SMILES: CC(/C=C/C(=O)NO)=C\[C@@H](C)C(=O)c1ccc(N(C)C)cc1 [TSA, Trichostatin A]
- body weight, less than control ([3]; 12 weeks on HFD): 16%
- insulin tolerance (ITT) ([3]; 12 weeks on HFD, 4 hour fast): significantly improved
- expression of type I myosin heavy chain in gastrocnemius and soleus (histology) ([3]; 13 weeks on HFD): increased
- oxidative fiber ratio in skeletal muscle ([3]; 13 weeks on HFD): increased
- insulin-induced signaling (IRS-1 Y632, Akt S473 phosphorylation) in gastrocnemius muscle ([3]; 30 minutes after insulin 0.75 U/kg): significantly improved
- PGC-1α protein in gastrocnemius muscle ([3]; immunoblot): all increased
- myoglobin protein in gastrocnemius muscle ([3]; immunoblot): all increased
- type I myosin heavy chain protein in gastrocnemius muscle ([3]; immunoblot): all increased
- HDAC activity in skeletal muscle (HDAC [4]): decreased

SMILES: CCCCCCCOC(=O)CCC [heptyl butyrate]
- inhibitory activity of HDAC (HDAC [1]): inhibited HDAC

SMILES: CCCCOC(=O)CCC [butyl butyrate]
- inhibitory activity of HDAC (HDAC [1]): inhibited HDAC

SMILES: CCCC(=O)OC [methyl butyrate]
- inhibitory activity of HDAC (HDAC [1]): inhibited HDAC

SMILES: CCCC(=O)OCCc1ccccc1 [pennetyl butyrate]
- inhibitory activity of HDAC (HDAC [1]): inhibited HDAC

SMILES: CCCC(=O)OCC(COC(=O)CCC)OC(=O)CCC [tributyrin]
- weight gain (ob/ob mice; 2 weeks, vs control): significantly reduced
- insulin sensitivity (ITT) (ob/ob mice; 4 hours fasting): preserved

SMILES: CCCC(=O)OC(C)c1ccccc1 (stereo not shown) [a-methylbenzyl butyrate]
- inhibitory activity of HDAC (HDAC [1]): inhibited HDAC

SMILES: CCCC(=O)OCc1ccccc1 [benzyl butyrate]
- inhibitory activity of HDAC (HDAC [1]): inhibited HDAC
